Source: article PMC7614683, “A small molecule PI3Kα activator for cardioprotection and neuroregeneration” (Nature, 2023)
Several values for one entry are separate records, joined by “and”; a condition that tells them apart may be missing. Equal values may be shown once.

System: rat sciatic nerve
Test: Rat sciatic nerve crush injury model
Format: in vivo
Settings: 21 days, single animals
Excerpt: We used the rat sciatic nerve crush model of peripheral nerve injury and regeneration[82]–[84]. Adult female Sprague Dawley rats (230-280 g, n=10, Charles River, UK) were anaesthetised by isoflurane inhalation in an induction chamber (5% isoflurane in O2, 0.8 l/min). Anaesthesia was maintained with 1.5-2.5% isoflurane inhalation, and the left sciatic nerve exposed at mid-thigh level.
The nerve was crushed by application of constant pressure using fully closed sterile type 4 tweezers (TAAB) for 15 sec. This was repeated two more times at the same point, with 45° rotation between each crush. The injury site was marked with a 10/0 epineurial non-absorbant suture (Ethicon). Following injury, a single 2 μl injection of 1938 solution (5 μM in sterile H2O) or vehicle (sterile dH2O) was administered proximal to the crush site with a 10 μl Hamilton syringe. An osmotic minipump (Alzet 1004, Charles River, UK) was also implanted between the muscle layers, adjacent to the nerve oriented with the outlet nearest to the crush site, loaded with 1938 solution (100 μM in sterile H2O) or vehicle (sterile H2O). Animals were randomly assigned to groups (n=5 per group) and one experimenter was kept blind to condition for conducting functional and histological analyses. Overlying muscle layers were closed using 4/0 sutures (Ethicon) and the skin was closed with wound clips (Clay Adams). Animals were left to recover for 21 days.
At the end-point of the experiment (21 days), rats were anaesthetised and the sciatic nerve exposed as described above. A reference, ground (Natus) and recording electrode (Ambu Neuroline) were attached above the hip bone, into the tail, and into the tibialis anterior muscle respectively. A microchannel neurointerface (MNI) was placed approximately 2 mm proximal to the injury site and used to stimulate the nerve. The MNI was manufactured using a previously documented protocol. Electrode impedance of the MNI was 27.1 ±19.8 kΩ at 1k Hz. Compound muscle action potential (CMAP) was obtained by sciatic nerve stimulation with square wave pulses of 100 μsec with intensity from 1-10 mA. Stimulus was increased in 0.2 mA steps until muscle response amplitude no longer increased. CMAP amplitude was measured from peak to peak and recorded in triplicate for both the ipsilateral and contralateral side. The CMAP with the largest amplitude was selected for analysis.
A modified multipoint stimulation technique was used to calculate Motor Unit Number Estimation (MUNE)[86]–[88]. Incremental responses were obtained by delivering a submaximal stimulation of 100 μsec duration at a frequency of 1Hz while increasing the stimulus intensity in increments of 0.02 mA to obtain minimal responses. The initial response was obtained with a stimulus intensity of between 0.21 mA and 0.70 mA. […] Additional Single Motor Unit Potentials (SMUPs) were evoked by stimulation in increments of 0.02 mA to obtain a minimum of four additional increments. The position of the stimulating electrode and the location of the recording electrode was changed to allow the recording of SMUPs from a different site of the muscle. This process was repeated at least three times. The CMAP was divided by the mean magnitude of SMUPs to quantify MUNE.
After electrophysiology recordings, animals were culled with sodium pentobarbital injection according to local regulations. Sciatic nerves, including the common peroneal branch, and tibialis anterior muscles were collected and placed in 4% paraformaldehyde (PFA). Nerve samples were fixed overnight in 4% PFA at 4°C before transferring to PBS. Nerve samples were divided into sciatic nerves including the crush site, and the common peroneal branch for sectioning. Nerve samples were immersed in 30% sucrose overnight at 4°C, then snap frozen in Neg-50 frozen section medium (Thermo Scientific) using liquid nitrogen cooled isopentane. […]

[1] = sciatic nerve 3 mm distal to injury
[2] = sciatic nerve 6 mm distal to injury

## CCN1CCN(c2ccc(Nc3cc(Nc4cccc5c4N(C(C)=O)CC5)ccn3)cc2)CC1 [Compound 1938]
  Nerve Branch ChAT (ChAT-positive motor axons, distal common peroneal nerve): increase in 1938-treated animals in the number of choline acetyltransferase (ChAT)-positive motor axons and 34 and 72 and 42 and 49 and 62
[1]
  Axons, ChAT: 1228 and 1010 and 1060 and 720 and 1883
  Axons, Neurofilament: 7100 and 6477 and 6615 and 8292 and 8493
[2]
  Axons, ChAT: 922 and 986 and 763 and 966 and 1022
  Axons, Neurofilament: 5299 and 5863 and 4746 and 5437 and 5016
Tibialis anterior muscle
  CMAP Recovery: greater compound muscle action potential (CMAP) recovery and 16.9542 % contralateral and 21.941 % contralateral and 17.4705 % contralateral and 17.5154 % contralateral and 28.7184 % contralateral
  MUNE Recovery: increased motor unit number estimation and 60.8971 % contralateral and 47.6617 % contralateral and 40.6292 % contralateral and 44.6256 % contralateral and 48.3614 % contralateral
  NMJ: 17 % reinnervation and 31 % reinnervation and 16 % reinnervation and 23 % reinnervation and 26 % reinnervation
